Assay results published in publication PMC6382835, “A critical evaluation of TRPA1-mediated locomotor behavior in zebrafish as a screening tool for novel anti-nociceptive drug discovery” (Scientific Reports, 2019).

Tests used:
C57BL/6 mice = assay: Von Frey test of mechanical hypersensitivity; format: in vivo, Mice (Mus musculus)
Experimental: We utilized WT C57BL/6 mice purchased from Envigo (Indianapolis, IN, USA). Total sixteen adult male mice (8–9 weeks, 22 ± 2 g) were housed in four ventilated Plexiglas cages (4 mice per cage). Four mice were tested in each group. Mice are maintained at temperature (21 °C) in an animal housing facility accredited by the Association for Assessment and Accreditation of Laboratory Animal Care with a reversed 12-hour dark-light cycle (lights off at 1000, lights on at 2200). This study was carried out in accordance with the recommendations of the National Institutes of Health Guide for the Care and Use of Laboratory Animals. The protocol (#1201000592 by Y.F.L. for Zebrafish, and #1605001408 by R.M.vR for mice) was approved by the Purdue University Institutional Animal Care and Use Committee.
Von Frey filaments (2.44 (0.04 g)–4.31 (2 g)) and a grid platform (#58011 and #57816, Stoelting, WI, USA) were used to test mechanical hypersensitivity of mice. A modified up-and-down method was utilized as previously described. […] Drug-induced mechanical hypersensitivity was measured 30 minutes after the second injection. […]
All data are presented as means ± standard error of the mean (SEM). For our in vitro statistical analysis, AUC of calcium influx (RFU) was measured to plot dose-response curves, which were further analyzed by nonlinear regression analysis. […] EC50 values of the dose-response curves were further used to plot Schild curves, and the curves were analyzed with linear regression analysis. For the mice von Frey test, mechanical thresholds were analyzed with two-way ANOVA followed by a Bonferonni test for multiple comparison analysis. […] AUC of all curves were measured and analyzed by one-way ANOVA. […] For our time-course average displacement graph, we used 2nd degree polynomial smoothing for a better representation; however, we used data before smoothing for all statistical analysis and quantification. All in vitro and in vivo data were evaluated using GraphPad Prism 7 (GraphPad Software, La Jolla, CA) unless it stated otherwise.

[1] = tested on: non-transfected HEK293 cells; assay: FLIPR calcium signaling assay in non-transfected HEK293 cells (off-target effect); format: cell-based

Row | Compound | mechanical thresholds of von Frey filaments, pre- vs post-drug (C57BL/6 mice; ASP7663 1 mg/kg i.p., measured 30 minutes after injection) | pEC50 (off-target calcium response) [1] | EC50 ([1]; read-out: EC50 (off-target calcium response)) [µM] | block of ASP7663-induced mechanical hypersensitivity (C57BL/6 mice; HC-030031 100 mg/kg p.o. 30 min before ASP7663 1 mg/kg i.p.) | mechanical thresholds of von Frey filaments, pre- vs post-drug (C57BL/6 mice; HC-030031 100 mg/kg p.o. alone) | calcium influx by antagonist alone [1]
1 | CC(C)CN1C(=O)/C(=C/C(=O)O)c2cccc(F)c21 [ASP7663] | significantly decreased mechanical thresholds | 4.27 ± 0.03 | 54.1 |  |  | 
2 | CC(C)c1ccc(NC(=O)Cn2cnc3c2c(=O)n(C)c(=O)n3C)cc1 [HC-030031] |  |  |  | blocked mechanical hypersensitivity induced by ASP7663 | did not show a statistical significance between pre- and post-drug mechanical thresholds | did not observe any calcium influx
